Data on one compound can be found in patent publication US20250102414A1, “A MICROFLUIDIC DEVICE FOR DETECTING AND CHARACTERIZING AT LEAST ONE ANALYTE, FOR EXAMPLE A CELL, IN A SAMPLE FLUID” (TECHNISCHE UNIVERSITEIT EINDHOVEN, priority 2022, published 2025).

The test system of assay [1] is MCF-7 cells. The assay can be described thus: Label-free drug response analysis by electrical impedance (opacity) with the microfluidic device. Particulars: 1 μM STS, cultured 3 days under drug exposure, opacity clusters. The format is cell-based. The method, then:
FIGS. 14a and 14b show the results of a drug response analysis for MCF-7 cells. As a first step, the viability of the cells was measured before and after analyzing these cells using one of the versions of the devices described in the present disclosure. […] Then, STS (with 1 μM concentration) were added to this well and the cells were cultured for another 3 days under the exposure of the drug.
(§1) In parallel, a control sample was also cultured under the same conditions without drug exposure was also analyzed for comparison. […] For the control sample, only one cluster, which were viable cells, were identified with 97% ratio for the total number of events. For the treated sample, 3 clusters were identified for viable, early apoptotic, and late apoptotic states with 44%, 19%, and 37% ratios, respectively. For validation, a commercially available apoptosis detection kit for fluorescent imaging were used and it provided the ratios of 47% viable and 53% apoptotic for the treated sample. A high-resolution drug response analysis were performed in a fully label free manner while keeping the cells intact, where the imaging required sample preparation and fixation of the cells, which kills the cells and the possibility of further functional analysis options.
Accordingly, embodiments of the present disclosure are capable of achieving measurement results when the electric field generating unit in the embodiments of the present disclosure delivers a voltage drop between electrodes of the present disclosure within the range of 0.1 to 0.5 V and, preferably, within the range of 0.2 to 0.4 V. The results shown in FIGS. 12, 13 and 14 were obtained with voltage values varying between 0.2-0.4 V for frequencies between 1-400 MHz with the maximum reachable voltage drop of 0.12 V, which is below the electroporation limit. […] These to be determined based on the sample, used electrolyte (medium conductivity), peripheral electronics (analyzers, power sources, etc.), size of the measurement volume, and the requirements of the analysis.

The subject of assay [2] is MCF-7 cells. The assay can be described thus: Commercially available apoptosis detection kit for fluorescent imaging (validation). The format is cell-based. Particulars: 1 μM STS, 3 days. The method, then: as §1

Regarding `CN[C@@H]1C[C@H]2O[C@@](C)([C@@H]1OC)n1c3ccccc3c3c4c(c5c6ccccc6n2c5c31)C(=O)NC4` [STS], in the assay on MCF-7 cells [1], the “ratio of early apoptotic cluster to total number of events” value was found to be 19%, the “ratio of late apoptotic cluster to total number of events” value is on record as 37% and the “ratio of viable cluster to total number of events” value is 44%. In the assay with MCF-7 cells [2], the ratio apoptotic is 53% and the ratio viable came out at 47%.
